In data set [1] the target is hERG potassium ion channel (Homo sapiens, UniProt Q12809). Put plainly: Inhibitory effect of hERG potassium ion channel (whole-cell patch clamp, HEK-hERG cell line). The class given is cell-based. On the procedure: A HEK-hERG cell line (IonGate Biosciences, Frankfrut, Germany) which stably expresses hERG was cultured in a DMEM (Dulbecco's modified Eagle's Medium, Sigma Co., St. Louis, Mo., USA) supplemented with 10% fetal bovine serum (FBS, Cambrex, Walkesville, Md., USA) and 0.5 mg/mL zeocin (Invitrogen, Carlsbad, Calif., USA). The cell line was subcultured for 5 days after culture when 80% confluency was reached.
Sequence of hERG potassium ion channel (Q12809 whole entry): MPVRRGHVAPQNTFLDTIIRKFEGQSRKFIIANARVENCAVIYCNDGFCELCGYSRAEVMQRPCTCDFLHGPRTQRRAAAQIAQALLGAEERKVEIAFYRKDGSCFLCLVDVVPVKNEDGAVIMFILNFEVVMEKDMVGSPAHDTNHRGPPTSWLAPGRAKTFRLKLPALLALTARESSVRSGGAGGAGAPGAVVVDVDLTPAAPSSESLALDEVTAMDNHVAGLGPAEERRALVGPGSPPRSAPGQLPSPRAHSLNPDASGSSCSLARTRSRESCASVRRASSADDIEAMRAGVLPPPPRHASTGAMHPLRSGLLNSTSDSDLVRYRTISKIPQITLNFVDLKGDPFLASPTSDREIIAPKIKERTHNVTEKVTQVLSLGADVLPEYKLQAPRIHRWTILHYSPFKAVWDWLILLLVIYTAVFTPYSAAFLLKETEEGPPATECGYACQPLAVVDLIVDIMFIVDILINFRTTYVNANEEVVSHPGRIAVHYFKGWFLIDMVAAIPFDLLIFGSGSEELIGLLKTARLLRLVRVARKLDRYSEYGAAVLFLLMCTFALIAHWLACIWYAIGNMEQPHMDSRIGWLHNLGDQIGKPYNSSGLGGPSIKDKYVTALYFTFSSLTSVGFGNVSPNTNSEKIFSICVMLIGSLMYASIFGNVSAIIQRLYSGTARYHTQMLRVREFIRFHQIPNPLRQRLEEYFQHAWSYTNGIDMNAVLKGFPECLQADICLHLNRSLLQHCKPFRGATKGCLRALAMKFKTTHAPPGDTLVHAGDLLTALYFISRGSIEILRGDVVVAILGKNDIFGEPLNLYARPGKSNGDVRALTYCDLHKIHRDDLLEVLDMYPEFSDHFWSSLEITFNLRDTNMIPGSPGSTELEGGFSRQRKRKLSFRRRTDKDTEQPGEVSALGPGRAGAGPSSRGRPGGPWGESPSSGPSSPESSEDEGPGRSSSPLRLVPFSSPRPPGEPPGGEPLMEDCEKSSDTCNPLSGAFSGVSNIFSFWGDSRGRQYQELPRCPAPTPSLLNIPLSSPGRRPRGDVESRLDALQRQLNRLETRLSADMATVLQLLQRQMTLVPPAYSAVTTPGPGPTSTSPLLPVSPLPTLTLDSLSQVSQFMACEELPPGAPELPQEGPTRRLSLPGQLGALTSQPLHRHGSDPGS
A solution within an electrode used to measure the potassium ion current is composed of 115 mM K-aspartate, 20 mM KCl, 10 mM EGTA, 10 mM HEPES, 2.5 mM tris-phosphocreatine, 0.1 mM Na2GTP and 5 mM MgCl2 (pH 7.2, 290 mOsm/Kg H2O). A solution for an extracellular perfusate is composed of 135 mM NaCl, 5 mM KCl, 1 mM MgCl2, 2 mM CaCl2, 10 mM glucose and 10 mM HEPES (pH 7.2, 300 mOsm/Kg H2O). […]
Potassium ion current was measured by using EPC10 (Instrutech Co., NY, USA) patch clamp amplifier in accordance with the conventional whole-cell patch clamp method. […] The membrane capacitance and series resistance of cell membrane were calibrated by 80% or more and potassium ion current was measured at a sampling rate of 2 kHz and a low-pass filter of 2 kHz (−3 dB; 8-pole Bassel filter). […]
The results were analyzed by using Pulse/Pulsefit (v9.0, HEKA Elektronik, Lambrecht, Germany) and Igor macro. […]

Data set [2] concerns the target T1, beta-amyloid 42 (Aβ42) (Homo sapiens, UniProt P05067).
T1 construct: Beta-amyloid 42 (Aβ42) was dissolved in dimethylsulfoxide (DMSO) to form a 250 mM Aβ42 stock solution
In words: Inhibitory effect on the formation of beta-amyloid fibrils in vitro (ThT fluorescence assay). The class given is biochemical. The settings on record: 10 μM compound; 25 μM Aβ42; ThT fluorescence. On the procedure: Beta-amyloid 42 (Aβ42) was dissolved in dimethylsulfoxide (DMSO) to form a […] Aβ42 stock solution. In addition, ThT (thioflavin T) was dissolved in distilled water to obtain a concentration of 1 mM and subsequently diluted with 50 mM glycin buffer (pH 8.5) to yield a 5 μM ThT stock solution. 45 μL of PBS (phosphate buffer saline, pH 7.4) was added to each of a 96-well fluorescence microplate (white, F-bottom). 5 μL of the 250 μM Aβ42 stock solution was added to each well. The final concentration of each compound obtained in Examples was in a range of 10 to 0.001 μM by adding 2 μL of a solution, which was prepared by dissolving the subject compounds obtained in Examples in DMSO, to each well. At this time, the final concentration of Aβ42 in each well was 25 μM. The plate was then incubated for 1 hr at room temperature, and 150 μL of the 5 μM ThT stock solution was added to each well.
The fluorescence intensity of each well was determined with the multi-label fluorescence counter (LS-55 Luminescence spectrometer: Perkin Elmer) at an excitation wavelength of 450 nm (excitation slit width: 10 nm) and an emission wavelength of 482 nm (emission slit width: 10 nm), while adjusting counting time to 1 second. The control group was prepared by adding PBS solution, Aβ42 and DMSO, without adding the inventive compound prepared above. A percent inhibition on the formation of beta-amyloid fibrils was calculated in accordance with the following equation, and IC50 was calculated by using GraphPad Prism version 4.03 Program.
% Inhibition=[1−(C−D)/(A−B)]×100
A (control group)=fluorescence intensity in a group treated with PBS solution, Aβ42 and DMSO
B (blank)=fluorescence intensity in a group treated with PBS solution and DMSO
C (experimental group)=fluorescence intensity in a group treated with PBS solution, Aβ42, the inventive compound and DMSO
D (compensation value to the experimental group) =fluorescence intensity in a group treated with PBS solution, the inventive compound and DMSO

Counter-ions that a name gives are not always drawn. A value given as a limit tells only on which side of the number the result lay.

T1 sequence (P05067 672-713 limits assumed): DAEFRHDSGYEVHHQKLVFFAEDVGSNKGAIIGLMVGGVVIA

In the case of `CN(C)CCOc1ccc2cc(/C=C/c3ccc(N(C)C)cc3)oc2c1` [Example 2, (E)-6-(2-dimethylaminoethoxy)-2-(4-dimethylaminostyryl)benzofuran], the “inhibitory efficacy on hERG potassium ion channel” value in data set [1] (result in words) is listed as “insignificant inhibitory efficacy”.
Broadly, the inhibition is the change of the read-out against control, counted positive when it falls. In general, IC50 refers to the point on the concentration scale where inhibition reaches its midpoint. Low values mean greater potency in that assay, high ones weaker potency in that assay. Compound `CN(C)CCOc1ccc2cc(/C=C/c3ccc(N(C)C)cc3)oc2c1` [Example 22, (E)-6-(2-dimethylaminoethoxy)-2-(4-dimethylaminostyryl)benzofuran hydrochloride] came in with an inhibition at 10 µM in data set [2] of at least 70%. The same compound showed an IC50 in data set [1] (HEK-hERG cells, whole-cell patch clamp, mean ± standard error) of 52.1 ± 3.68 µM.

Source of the values: patent US20150065494A1, “AMINOSTYRYLBENZOFURAN DERIVATIVES AS INHIBITORS AGAINST BETA-AMYLOID FIBRIL FORMATION, AND PHARMACEUTICAL COMPOSITION COMPRISING SAME” (KOREA INSTITUTE OF SCIENCE AND TECHNOLOGY, priority 2012, published 2015).
